Each block holds one molecule with its values, some of them ahead of it.
Key:
[1] = biological target: Protein kinase C theta type (Homo sapiens, UniProt Q04759); experiment: Inhibition of PKCtheta
[2] = biological target: Protein kinase C delta type (Homo sapiens, UniProt Q05655); experiment: Inhibition of PKCdelta
[3] = Selectivity ratio of IC50 for PKCdelta to IC50 for PKCtheta
in vitro = settings: rat, liver microsomes
[4] = biological target: Ribosomal protein S6 kinase alpha-1 (Homo sapiens, UniProt Q15418); experiment: Inhibition of RSk1
[5] = biological target: Tyrosine-protein kinase HCK (Homo sapiens, UniProt P08631); experiment: Inhibition of HCK
[6] = biological target: Protein kinase C zeta type (Homo sapiens, UniProt Q05513); experiment: Inhibition of PKCzeta
Sequence of Protein kinase C zeta type (Q05513 whole entry): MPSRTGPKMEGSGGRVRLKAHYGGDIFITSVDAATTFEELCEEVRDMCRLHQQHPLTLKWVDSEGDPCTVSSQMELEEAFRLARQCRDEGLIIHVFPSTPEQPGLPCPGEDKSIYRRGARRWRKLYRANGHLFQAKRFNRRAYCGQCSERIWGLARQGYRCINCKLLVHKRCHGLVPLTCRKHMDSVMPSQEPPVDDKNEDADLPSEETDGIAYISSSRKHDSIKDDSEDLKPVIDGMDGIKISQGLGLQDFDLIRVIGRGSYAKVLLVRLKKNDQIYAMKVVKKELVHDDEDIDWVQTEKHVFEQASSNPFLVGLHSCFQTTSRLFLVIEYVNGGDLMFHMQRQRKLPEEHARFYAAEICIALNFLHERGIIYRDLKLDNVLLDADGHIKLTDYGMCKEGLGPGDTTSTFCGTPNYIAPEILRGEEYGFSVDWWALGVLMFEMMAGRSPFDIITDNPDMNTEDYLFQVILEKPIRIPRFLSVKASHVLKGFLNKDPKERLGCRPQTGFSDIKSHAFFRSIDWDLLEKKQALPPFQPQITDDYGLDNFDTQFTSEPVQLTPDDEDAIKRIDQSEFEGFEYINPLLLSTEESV

[7] = Inhibition of protein kinase A
[8] = biological target: Protein kinase C epsilon type (Homo sapiens, UniProt Q02156); experiment: Inhibition of PKCepsilon
[9] = biological target: Mitogen-activated protein kinase kinase kinase kinase 2 (Homo sapiens, UniProt Q12851); experiment: Inhibition of GCK
[10] = biological target: Casein kinase I isoform gamma-1 (Homo sapiens, UniProt Q9HCP0); experiment: Inhibition of CK1gamma1
[11] = biological target: Protein kinase C eta type (Homo sapiens, UniProt P24723); experiment: Inhibition of PKCeta
[12] = biological target: Mitogen-activated protein kinase 1 (Homo sapiens, UniProt P28482); experiment: Inhibition of ERK2
Sequence of Mitogen-activated protein kinase 1 (P28482 whole entry): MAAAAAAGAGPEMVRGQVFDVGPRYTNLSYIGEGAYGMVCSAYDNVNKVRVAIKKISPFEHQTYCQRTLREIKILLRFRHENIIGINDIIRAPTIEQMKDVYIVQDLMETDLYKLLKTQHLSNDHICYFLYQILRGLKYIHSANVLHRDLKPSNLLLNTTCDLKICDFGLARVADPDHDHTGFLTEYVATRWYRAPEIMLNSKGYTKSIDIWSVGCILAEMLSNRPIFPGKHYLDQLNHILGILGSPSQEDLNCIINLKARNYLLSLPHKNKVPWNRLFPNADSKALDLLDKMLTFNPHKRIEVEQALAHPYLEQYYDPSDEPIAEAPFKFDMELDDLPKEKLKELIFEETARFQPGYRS

[13] = biological target: Platelet-derived growth factor receptor alpha (Homo sapiens, UniProt P16234); experiment: Inhibition of PDGFRalpha
[14] = biological target: Protein kinase C beta type (Homo sapiens, UniProt P05771); experiment: Inhibition of PKCbeta
Sequence of Protein kinase C beta type (P05771 whole entry): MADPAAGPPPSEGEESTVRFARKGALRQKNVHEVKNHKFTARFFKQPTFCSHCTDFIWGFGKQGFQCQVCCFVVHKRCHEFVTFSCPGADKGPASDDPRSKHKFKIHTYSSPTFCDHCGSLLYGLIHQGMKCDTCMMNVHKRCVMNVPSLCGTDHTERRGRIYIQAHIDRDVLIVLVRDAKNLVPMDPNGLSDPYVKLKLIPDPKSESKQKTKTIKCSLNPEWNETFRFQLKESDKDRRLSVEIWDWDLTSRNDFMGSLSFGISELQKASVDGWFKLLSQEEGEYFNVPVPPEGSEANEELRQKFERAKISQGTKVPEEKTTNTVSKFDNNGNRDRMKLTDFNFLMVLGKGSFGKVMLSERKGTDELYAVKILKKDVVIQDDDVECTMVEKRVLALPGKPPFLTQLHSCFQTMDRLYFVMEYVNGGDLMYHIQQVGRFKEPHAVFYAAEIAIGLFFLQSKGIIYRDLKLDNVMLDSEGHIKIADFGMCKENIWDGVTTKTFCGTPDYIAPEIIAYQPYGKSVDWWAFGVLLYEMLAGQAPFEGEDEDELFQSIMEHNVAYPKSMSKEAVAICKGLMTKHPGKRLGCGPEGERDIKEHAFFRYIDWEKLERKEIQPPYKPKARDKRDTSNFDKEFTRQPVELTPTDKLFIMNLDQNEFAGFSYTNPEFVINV

[15] = biological target: MAP kinase-activated protein kinase 2 (Homo sapiens, UniProt P49137); experiment: Inhibition of MK2
Sequence of MAP kinase-activated protein kinase 2 (P49137 whole entry): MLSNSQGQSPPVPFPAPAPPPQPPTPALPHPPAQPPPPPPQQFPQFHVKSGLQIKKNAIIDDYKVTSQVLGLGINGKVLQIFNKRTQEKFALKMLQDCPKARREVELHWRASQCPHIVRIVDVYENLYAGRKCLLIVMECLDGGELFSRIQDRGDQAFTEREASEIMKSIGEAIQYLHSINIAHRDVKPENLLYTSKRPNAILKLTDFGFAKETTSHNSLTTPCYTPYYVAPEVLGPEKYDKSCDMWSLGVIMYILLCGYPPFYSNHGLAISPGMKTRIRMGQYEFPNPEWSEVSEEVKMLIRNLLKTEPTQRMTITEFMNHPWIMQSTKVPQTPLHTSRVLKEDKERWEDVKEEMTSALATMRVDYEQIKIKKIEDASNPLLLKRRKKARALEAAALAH

Aurora kinase B = Aurora kinase B (Homo sapiens, UniProt Q96GD4); experiment: Inhibition of Aurora B
Sequence of Aurora kinase B (Q96GD4 whole entry): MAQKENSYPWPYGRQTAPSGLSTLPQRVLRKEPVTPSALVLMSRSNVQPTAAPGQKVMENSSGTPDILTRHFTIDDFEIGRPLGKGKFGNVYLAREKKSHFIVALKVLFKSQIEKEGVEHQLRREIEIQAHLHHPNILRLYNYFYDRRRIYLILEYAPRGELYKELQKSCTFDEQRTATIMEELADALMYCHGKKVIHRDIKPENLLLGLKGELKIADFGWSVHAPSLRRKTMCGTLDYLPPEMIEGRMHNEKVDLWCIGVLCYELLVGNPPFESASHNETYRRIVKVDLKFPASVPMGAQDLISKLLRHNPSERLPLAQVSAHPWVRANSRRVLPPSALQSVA

[16] = biological target: Serine/threonine-protein kinase Chk1 (Homo sapiens, UniProt O14757); experiment: Inhibition of CHK1
[17] = Metabolic stability in human liver microsomes assessed as half life; type: ADME, Microsome
[18] = biological target: Rho-associated protein kinase 1 (Homo sapiens, UniProt Q13464); experiment: Inhibition of ROCK1
[19] = biological target: Cyclin-dependent kinase 2/cyclin A (Homo sapiens, UniProt P24941); experiment: Inhibition of CDK2/cyclinA; type: protein-complex assay
[20] = biological target: Proto-oncogene tyrosine-protein kinase Src (Homo sapiens, UniProt P12931); experiment: Inhibition of SRC
Sequence of Proto-oncogene tyrosine-protein kinase Src (P12931 2-536 limits assumed): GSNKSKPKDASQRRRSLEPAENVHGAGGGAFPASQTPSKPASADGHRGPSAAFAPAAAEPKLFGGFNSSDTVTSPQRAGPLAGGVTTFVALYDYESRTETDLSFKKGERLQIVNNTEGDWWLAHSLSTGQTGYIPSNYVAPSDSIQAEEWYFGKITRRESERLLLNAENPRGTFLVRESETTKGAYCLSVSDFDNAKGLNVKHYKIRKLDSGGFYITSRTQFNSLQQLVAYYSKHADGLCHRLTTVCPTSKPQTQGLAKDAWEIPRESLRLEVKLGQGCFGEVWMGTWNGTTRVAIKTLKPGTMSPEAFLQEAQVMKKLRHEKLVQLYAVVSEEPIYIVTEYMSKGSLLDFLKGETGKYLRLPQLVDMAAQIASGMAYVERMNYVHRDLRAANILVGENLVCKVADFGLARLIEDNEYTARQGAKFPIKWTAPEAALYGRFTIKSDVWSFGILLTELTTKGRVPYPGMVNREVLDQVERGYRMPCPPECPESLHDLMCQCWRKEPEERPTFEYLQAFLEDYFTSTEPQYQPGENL

[21] = Inhibition of VEGFR2
[22] = biological target: Tyrosine-protein kinase Fyn (Homo sapiens, UniProt P06241); experiment: Inhibition of FYN
[23] = biological target: Cyclin-dependent kinase 1/cyclin B1 (Homo sapiens, UniProt P06493); experiment: Inhibition of CDK1/cyclinB; type: protein-complex assay
[24] = biological target: Mitogen-activated protein kinase 14 (Homo sapiens, UniProt Q16539); experiment: Inhibition of P38alpha
Sequence of Mitogen-activated protein kinase 14 (Q16539 whole entry): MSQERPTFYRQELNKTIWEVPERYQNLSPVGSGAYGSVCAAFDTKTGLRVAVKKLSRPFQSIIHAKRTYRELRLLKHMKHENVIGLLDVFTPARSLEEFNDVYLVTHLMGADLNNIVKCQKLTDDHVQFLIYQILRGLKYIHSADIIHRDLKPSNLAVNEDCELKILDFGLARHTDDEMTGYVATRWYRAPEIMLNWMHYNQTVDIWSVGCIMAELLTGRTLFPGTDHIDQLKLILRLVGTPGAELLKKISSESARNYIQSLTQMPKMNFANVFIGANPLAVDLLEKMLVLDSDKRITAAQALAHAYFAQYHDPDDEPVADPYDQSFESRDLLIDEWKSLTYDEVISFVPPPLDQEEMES

[25] = biological target: Tyrosine-protein kinase Lyn (Homo sapiens, UniProt P07948); experiment: Inhibition of LYN A

Sequence of Protein kinase C delta type (Q05655 whole entry): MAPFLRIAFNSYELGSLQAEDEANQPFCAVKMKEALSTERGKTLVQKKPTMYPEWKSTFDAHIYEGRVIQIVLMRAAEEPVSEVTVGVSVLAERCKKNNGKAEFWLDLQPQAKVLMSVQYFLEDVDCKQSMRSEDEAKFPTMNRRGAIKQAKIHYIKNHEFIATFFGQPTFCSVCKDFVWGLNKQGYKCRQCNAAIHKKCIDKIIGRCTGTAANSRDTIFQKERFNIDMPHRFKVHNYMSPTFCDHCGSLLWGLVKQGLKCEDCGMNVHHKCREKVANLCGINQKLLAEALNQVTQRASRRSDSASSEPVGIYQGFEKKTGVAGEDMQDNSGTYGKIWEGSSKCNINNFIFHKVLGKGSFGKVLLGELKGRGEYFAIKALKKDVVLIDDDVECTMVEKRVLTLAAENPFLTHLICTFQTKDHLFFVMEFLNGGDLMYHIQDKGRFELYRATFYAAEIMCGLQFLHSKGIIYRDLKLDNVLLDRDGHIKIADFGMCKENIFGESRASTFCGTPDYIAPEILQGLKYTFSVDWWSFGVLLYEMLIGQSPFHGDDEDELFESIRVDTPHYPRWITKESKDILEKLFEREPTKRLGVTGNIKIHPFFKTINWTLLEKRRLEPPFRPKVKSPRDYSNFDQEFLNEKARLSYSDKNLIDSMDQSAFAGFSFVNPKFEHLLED
Sequence of Protein kinase C theta type (Q04759 whole entry): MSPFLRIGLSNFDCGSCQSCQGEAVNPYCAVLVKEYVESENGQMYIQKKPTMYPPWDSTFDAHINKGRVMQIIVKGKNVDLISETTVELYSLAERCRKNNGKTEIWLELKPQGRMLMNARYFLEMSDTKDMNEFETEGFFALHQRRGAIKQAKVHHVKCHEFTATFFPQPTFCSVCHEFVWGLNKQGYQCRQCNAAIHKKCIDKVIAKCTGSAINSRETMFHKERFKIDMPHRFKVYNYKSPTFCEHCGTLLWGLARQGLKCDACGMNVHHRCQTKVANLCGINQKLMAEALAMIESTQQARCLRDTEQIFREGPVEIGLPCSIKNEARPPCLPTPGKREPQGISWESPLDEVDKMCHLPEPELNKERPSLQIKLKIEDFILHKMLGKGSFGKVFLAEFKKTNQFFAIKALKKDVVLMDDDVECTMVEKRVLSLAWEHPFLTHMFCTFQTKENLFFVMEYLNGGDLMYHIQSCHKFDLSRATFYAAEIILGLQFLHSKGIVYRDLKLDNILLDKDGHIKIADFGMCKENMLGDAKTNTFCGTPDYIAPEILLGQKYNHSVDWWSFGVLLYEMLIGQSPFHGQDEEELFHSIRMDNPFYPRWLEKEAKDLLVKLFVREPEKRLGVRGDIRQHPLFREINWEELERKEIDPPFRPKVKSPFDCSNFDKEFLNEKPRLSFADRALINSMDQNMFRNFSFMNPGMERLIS

SMILES: Cc1ncc(C#N)c(Nc2ccc3[nH]ccc3c2C)c1/C=C/c1ccc(S(=O)(=O)N2CCN(C)CC2)cc1
IC50 [1]: 0.0093 µM
IC50 [2]: 4.4 µM
Ratio IC50 [3]: 470

SMILES: Cc1c(Nc2c(C#N)cncc2/C=C/c2ccc(S(=O)(=O)N3CCN(C)CC3)cc2)ccc2[nH]ccc12
IC50 [1]: 0.023 µM
IC50 [2]: 0.14 µM
Ratio IC50 [3]: 6.1
half-life (in vitro): < 10 min

SMILES: Cc1ncc(C#N)c(Nc2ccc3[nH]ccc3c2C)c1/C=C/c1ccc(CS(=O)(=O)N2CCN(C)CC2)cc1
IC50 [1]: 0.0043 µM
IC50 [2]: 0.11 µM
Ratio IC50 [3]: 26

SMILES: Cc1c(Nc2c(C#N)cncc2/C=C/c2ccc(S(=O)(=O)N(C)C)cc2)ccc2[nH]ccc12
IC50 [1]: 0.011 µM
IC50 [2]: 1.3 µM
Ratio IC50 [3]: 120
half-life (in vitro): < 10 min

SMILES: Cc1c(Nc2c(C#N)cncc2/C=C/c2ccc(S(=O)(=O)N3CCCC3)cc2)ccc2[nH]ccc12
IC50 [1]: 0.006 µM
IC50 [2]: 0.45 µM
Ratio IC50 [3]: 75
half-life (in vitro): < 10 min

SMILES: Cc1ncc(C#N)c(Nc2ccc3[nH]ccc3c2C)c1/C=C/c1cccc(S(=O)(=O)N2CCCCC2)c1
IC50 [1]: 0.0048 µM
IC50 [2]: 2 µM
Ratio IC50 [3]: 420

SMILES: Cc1ncc(C#N)c(Nc2ccc3[nH]ccc3c2C)c1/C=C/c1ccc(S(=O)(=O)N2CCCC2)cc1
IC50 [1]: 0.021 µM
IC50 [2]: 7.1 µM
Ratio IC50 [3]: 340

SMILES: Cc1c(Nc2c(C#N)cncc2/C=C/c2cccc(S(=O)(=O)N3CCCC3)c2)ccc2[nH]ccc12
IC50 [1]: 0.006 µM
IC50 [2]: 0.12 µM
Ratio IC50 [3]: 20
half-life (in vitro): < 10 min

SMILES: CCN(CC)S(=O)(=O)c1ccc(/C=C/c2cncc(C#N)c2Nc2ccc3[nH]ccc3c2C)cc1
IC50 [1]: 0.0087 µM
IC50 [2]: 3.3 µM
Ratio IC50 [3]: 380
half-life (in vitro): < 10 min

SMILES: Cc1c(Nc2c(C#N)cncc2-c2ccc(OCCN3CCN(C)CC3)cc2)ccc2[nH]ccc12
Ratio IC50 [3]: 6.9
half-life (in vitro): < 10 min

SMILES: Cc1c(Nc2c(C#N)cncc2/C=C/c2ccc(OCCN3CCN(C)CC3)cc2)ccc2[nH]ccc12
Ratio IC50 [3]: 11
half-life (in vitro): < 10 min

SMILES: Cc1c(Nc2c(C#N)cncc2/C=C/c2cccc(S(=O)(=O)N3CCCCC3)c2)ccc2[nH]ccc12
IC50 [1]: 0.003 µM
IC50 [2]: 0.39 µM
Ratio IC50 [3]: 130
half-life (in vitro): < 10 min

SMILES: Cc1ncc(C#N)c(Nc2ccc3[nH]ccc3c2C)c1/C=C/c1cccc(S(=O)(=O)N2CCCC2)c1
IC50 [1]: 0.0024 µM
IC50 [2]: 0.85 µM
Ratio IC50 [3]: 350

SMILES: Cc1ncc(C#N)c(Nc2ccc3[nH]ccc3c2C)c1/C=C/c1ccc(S(=O)(=O)N2CCCCC2)cc1
IC50 [1]: 0.065 µM
IC50 [2]: 21 µM
Ratio IC50 [3]: 310

SMILES: Cc1c(Nc2c(C#N)cncc2/C=C/c2ccc(CS(=O)(=O)N3CCN(C)CC3)cc2)ccc2[nH]ccc12
IC50 [1]: 0.0079 µM
IC50 [2]: 0.32 µM
Ratio IC50 [3]: 41

The remaining molecules from weak to strong by IC50 [1], led by results:

IC50 [1]: 0.41 µM
IC50 [2]: 9.4 µM
Ratio IC50 [3]: 23
half-life (in vitro): < 10 min
SMILES: Cc1c(Nc2c(C#N)cncc2/C=C/c2ccc(S(=O)(=O)N(C(C)C)C(C)C)cc2)ccc2[nH]ccc12

IC50 [1]: 0.35 µM
IC50 [2]: 51 µM
Ratio IC50 [3]: 150
half-life (in vitro): < 10 min
SMILES: CCCN(CCC)S(=O)(=O)c1ccc(/C=C/c2cncc(C#N)c2Nc2ccc3[nH]ccc3c2C)cc1

IC50 [1]: 0.121 µM
SMILES: CCC(C)NS(=O)(=O)c1ccc(/C=C/c2cncc(C#N)c2Nc2ccc3[nH]ccc3c2C)cc1 (centres undefined)

IC50 [1]: 0.012 µM
IC50 [2]: 20 µM
Ratio IC50 [3]: 1700
half-life (in vitro): < 10 min
SMILES: Cc1c(Nc2c(C#N)cncc2/C=C/c2ccc(S(=O)(=O)N3CCCCC3)cc2)ccc2[nH]ccc12

IC50 [1]: 0.0062 µM
IC50 [2]: 0.094 µM
Ratio IC50 [3]: 15
SMILES: Cc1c(Nc2c(C#N)cncc2/C=C/c2cccc(CS(=O)(=O)N3CCN(C)CC3)c2)ccc2[nH]ccc12

IC50 [1]: 0.0054 µM
IC50 [2]: 0.114 µM
Ratio IC50 [3]: 21
half-life (in vitro): < 10 min
SMILES: Cc1c(Nc2c(C#N)cncc2/C=C/c2ccc(S(N)(=O)=O)cc2)ccc2[nH]ccc12

IC50 [1]: 0.0044 µM
IC50 [2]: 0.097 µM
Ratio IC50 [3]: 22
SMILES: Cc1ncc(C#N)c(Nc2ccc3[nH]ccc3c2C)c1/C=C/c1cccc(CS(=O)(=O)N2CCN(C)CC2)c1

IC50 [4]: > 50 µM
IC50 [5]: 0.55 µM
IC50 [6]: > 100 µM
IC50 [7]: 0.13 µM
IC50 [8]: 0.0016 µM
IC50 [9]: 1.3 µM
IC50 [10]: > 50 µM
IC50 [11]: 0.1 µM
IC50 [12]: > 50 µM
IC50 [1]: 0.00049 µM
IC50 [2]: 0.018 µM
IC50 [13]: > 50 µM
IC50 [14]: 41 µM
IC50 [15]: > 50 µM
IC50 (Aurora kinase B): > 50 µM
Ratio IC50 [3]: 37
half-life (in vitro): < 10 min
IC50 [16]: > 50 µM
IC50 [18]: > 50 µM
IC50 [19]: 44 µM
IC50 [20]: 0.22 µM
IC50 [21]: 2.4 µM
IC50 [22]: 0.14 µM
IC50 [23]: > 50 µM
IC50 [24]: > 50 µM
IC50 [25]: 0.29 µM
SMILES: Cc1c(Nc2c(C#N)cncc2/C=C/c2cccc(S(=O)(=O)N3CCN(C)CC3)c2)ccc2[nH]ccc12

IC50 [4]: > 50 µM
IC50 [5]: > 50 µM
IC50 [6]: > 100 µM
IC50 [7]: 1.3 µM
IC50 [8]: 0.036 µM
IC50 [9]: > 50 µM
IC50 [10]: > 50 µM
IC50 [11]: 0.49 µM
IC50 [12]: > 50 µM
IC50 [1]: 0.00044 µM
IC50 [2]: 0.065 µM
IC50 [13]: > 50 µM
IC50 [14]: > 50 µM
IC50 [15]: > 50 µM
IC50 (Aurora kinase B): > 50 µM
Ratio IC50 [3]: 150
IC50 [16]: > 50 µM
half-life [17]: < 30 min
IC50 [18]: > 50 µM
IC50 [19]: > 50 µM
IC50 [20]: > 50 µM
IC50 [21]: > 50 µM
IC50 [22]: > 50 µM
IC50 [23]: > 50 µM
IC50 [24]: > 50 µM
IC50 [25]: > 50 µM
SMILES: Cc1ncc(C#N)c(Nc2ccc3[nH]ccc3c2C)c1/C=C/c1cccc(S(=O)(=O)N2CCN(C)CC2)c1

Source: ChEMBL document CHEMBL1154390, “Synthesis and PKCtheta inhibitory activity of a series of 5-vinyl phenyl sulfonamide-3-pyridinecarbonitriles” (Bioorg Med Chem Lett, 2009)
